Assay [1] deals with T1, hTREM2 (Homo sapiens, UniProt Q9NZC2). Put plainly: Phospho-Syk AlphaLisa assay in HEK293T-hTREM2 cells expressing human TREM2 and DAP12 (Example A2). It is filed as cell-based. Details: expressed in transfected cells; host or cells: HEK293T-hTREM2 cells. Particulars: HEK293 cells, Syk phosphorylation, Examples 276-283. Here is the method:
Measurement of TREM2 agonist potency was done using a HEK cell line expressing human TREM2 and DAP12 (HEK293T-hTREM2 cells). Binding of small molecules to, and activation of, TREM2 increases the phosphorylation of Syk. The resultant levels of Syk phosphorylation were measured using a commercial AlphaLisa reagent kit. To perform the assay, HEK-hTREM2 cells were plated at 14,000 cells per well in a 384 well plate, in 25 μL of complete growth media and incubated at 37° C., 5% CO2 for 20-24 hours. Prior to the assay, test compounds were diluted in the 384 well plates in assay buffer and allowed to equilibrate for 30 minutes. Growth media was removed from cell plates by inversion on blotting paper, and 25 μL of test compounds in assay buffer was added to cells. Cells were incubated for 45 minutes at room temperature. After 45 minutes, assay buffer was removed and 10 μL of lysis buffer was added. Plates were shaken for 20 minutes at 350 RPM at room temperature. After complete lysis, AlphaLisa reagents were added to the lysate, and fluorescence intensity was measured using a Perkin Elmer Envision plate reader. Intensities were used to generate a standard curve, and % activation was calculated. Curve fitting was performed using Prism v9 software, log(agonist) vs response—variable slope (four parameters), and EC50s were calculated from the curve fit.
The results presented in Table 11 have been generated with the in vitro assay described above for Examples 276-283. This assay may be used to test any of the compounds described herein to assess and characterize a compound's ability to act as an agonist of TREM2.
For orientation: Alpha assays give light when donor and acceptor beads are brought close together.

Assay [2] addresses T1, hTREM2. Put plainly: Phospho-Syk AlphaScreen/AlphaLISA assay in TREM2 and DAP12 overexpressing HEK293 cells (Example A1). It is filed as cell-based. Set-up: expressed in transfected cells. The method, boiled down: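 Single-cell-cloned HEK293 stably overexpressing TREM2 and DAP12, plated 20,000 cells/well for 20 h, then exposed to compounds (1% DMSO) 45 min at room temperature. Lysates probed for phospho-Syk by AlphaLISA sandwich (anti-pSyk, biotinylated anti-Syk); signal normalized to percent of control (100 nM anti-TREM2 antibody vs isotype) and fitted by 4-parameter logistic.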

[3] abbreviates: HEK293 cells, read-out: hTREM2 EC50.

Some results are limits rather than exact numbers.

T1 sequence (Q9NZC2 19-230): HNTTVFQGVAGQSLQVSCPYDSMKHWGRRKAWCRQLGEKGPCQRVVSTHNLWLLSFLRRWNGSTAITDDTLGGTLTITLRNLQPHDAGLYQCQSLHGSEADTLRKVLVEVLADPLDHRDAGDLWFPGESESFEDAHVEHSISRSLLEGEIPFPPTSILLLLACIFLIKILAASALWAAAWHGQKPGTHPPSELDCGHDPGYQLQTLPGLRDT
T1 sequence (O43914 22-113 partner): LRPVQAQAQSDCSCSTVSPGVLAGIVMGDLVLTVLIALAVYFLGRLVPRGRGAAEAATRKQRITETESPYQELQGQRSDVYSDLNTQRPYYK

As to `Cc1cc(C2CN(c3cc4nc(C)n(C)c(=O)c4c(-c4ccc(F)cc4F)n3)CCO2)ccn1` (centres unmarked) [Example 276, 5-(2,4-difluorophenyl)-2,3-dimethyl-7-(2-(2-methylpyridin-4-yl)morpholino)pyrido[4,3-d]pyrimidin-4(3H)-one], the EC50 in assay [1] is less than 50 nM.

In turn, `COc1cc(C2CN(c3cc4nc(C)n(C)c(=O)c4c(-c4ccc(F)cc4F)n3)CCO2)ccn1` (centres unmarked) [Example 279, 5-(2,4-difluorophenyl)-7-(2-(2-methoxypyridin-4-yl)morpholino)-2,3-dimethylpyrido[4,3-d]pyrimidin-4(3H)-one] displayed an EC50 in assay [1] of less than 50 nM.

`Cc1nc2cc(N3CCC[C@@H](c4cn[nH]c4)C3)nc(-c3ccc(Cl)cc3F)c2c(=O)n1C` (single isomer, unassigned) [Example 107]: the Emax entry in assay [2] (HEK293 cells) is reported as “++++ (Emax>300)”. Further, in assay [2] (setting [3]), the EC50 was less than 50 nM.

In the case of `Cc1nc2cc(N3CCO[C@H](c4cnn(C)c4)C3)nc(-c3ccc(Cl)cc3F)c2c(=O)n1C` [Example 2, 5-(4-chloro-2-fluorophenyl)-2,3-dimethyl-7-((2R)-2-(1-methyl-1H-pyrazol-4-yl)-4-morpholinyl)pyrido[4,3-d]pyrimidin-4(3H)-one], in assay [2] (HEK293 cells), the Emax result was “+++ (Emax>200 and ≤300)”. For the same compound, in assay [2] (setting [3]), the EC50 was in the range of 500 to 3000 nM.

As to `Cc1nc2cc(N3CCO[C@@H](c4ccnc(Cl)c4)C3)nc(-c3ccc(Cl)cc3F)c2c(=O)n1C` (single isomer, unassigned) [Example 89], the Emax entry in assay [2] (HEK293 cells) is listed as “++++ (Emax>300)”. In addition, the EC50 in assay [2] (setting [3]) was in the range of 50 to 500 nM.

`Cc1nc2cc(N3CCO[C@@H](c4cnn(C(F)CF)c4)C3)nc(-c3ccc(Cl)cc3F)c2c(=O)n1C` (stereo partly drawn) [Example 135, 5-(4-chloro-2-fluorophenyl)-7-((2S)-2-(1-(1,2-difluoroethyl)-1H-pyrazol-4-yl)-4-morpholinyl)-2,3-dimethylpyrido[4,3-d]pyrimidin-4(3H)-one] returned an EC50 in assay [2] (hTREM2 EC50, HEK293 cells) of 50 to 500 nM.

`Cc1nc2cc(N3CCC[C@@H](C4CNC4)C3)nc(-c3ccc(Cl)cc3F)c2c(=O)n1C` [Example 251, (S)-7-(3-(azetidin-3-yl)piperidin-1-yl)-5-(4-chloro-2-fluorophenyl)-2,3-dimethylpyrido[4,3-d]pyrimidin-4(3H)-one]: the Emax entry in assay [2] (HEK293 cells) is “++ (Emax>100 and ≤200)”. The EC50 in assay [2] (setting [3]) fell in the range of 3000 to 100000 nM.

As for `Cc1nc2cc(N3C[C@@H](C)O[C@@H](C4CC4)C3)nc(-c3ccc(Cl)cc3F)c2c(=O)n1C` (single isomer, unassigned) [Example 34], the Emax result in assay [2] (HEK293 cells) is reported as “++++ (Emax>300)”. Further, the concentration for a half-maximal effect (EC50) in assay [2] (setting [3]) fell in the range of 500 to 3000 nM.

As for `Cc1nc2cc(N3CCO[C@H](c4ccccn4)C3)nc(-c3ccc(Cl)cc3F)c2c(=O)n1C` [Example 209, (S)-5-(4-chloro-2-fluorophenyl)-2,3-dimethyl-7-(2-(pyridin-2-yl)morpholino)pyrido[4,3-d]pyrimidin-4(3H)-one], the Emax result in assay [2] (HEK293 cells) was “+++ (Emax>200 and ≤300)”. Also, the EC50 in assay [2] (setting [3]) lay within 500 to 3000 nM.

Take `Cc1nc2cc(N3CCC[C@H](C4CN(C)C4)C3)nc(-c3ccc(Cl)cc3F)c2c(=O)n1C` [Example 252, (R)-5-(4-chloro-2-fluorophenyl)-2,3-dimethyl-7-(3-(1-methylazetidin-3-yl)piperidin-1-yl)pyrido[4,3-d]pyrimidin-4(3H)-one]: the Emax result in assay [2] (HEK293 cells) was “+++ (Emax>200 and ≤300)”. Further, the EC50 in assay [2] (setting [3]) is 3000 to 100000 nM.

Regarding `CCCn1c(C)nc2cc(N3CCO[C@H](c4ccnn4C)C3)nc(-c3ccc(Cl)cc3F)c2c1=O` [Example 184, (S)-5-(4-chloro-2-fluorophenyl)-2-methyl-7-(2-(1-methyl-1H-pyrazol-5-yl)morpholino)-3-propylpyrido[4,3-d]pyrimidin-4(3H)-one], in assay [2] (HEK293 cells), the Emax entry was “++++ (Emax>300)”. For the same compound, the EC50 in assay [2] (setting [3]) fell in the range of 50 to 500 nM.

As to `C=Cn1cc([C@H]2CN(c3cc4nc(C)n(C)c(=O)c4c(-c4ccc(Cl)cc4F)n3)CCO2)cn1` [Example 137, 5-(4-chloro-2-fluorophenyl)-7-((2S)-2-(1-ethenyl-1H-pyrazol-4-yl)-4-morpholinyl)-2,3-dimethylpyrido[4,3-d]pyrimidin-4(3H)-one], the Emax result in assay [2] (HEK293 cells) is reported as “++++ (Emax>300)”. Further, in assay [2] (setting [3]), the EC50 was less than 50 nM.

As to `Cc1ncc([C@H]2CN(c3cc4nc(C)n(C)c(=O)c4c(-c4ccc(Cl)cc4F)n3)CCO2)cn1` (single isomer, unassigned) [Example 65], in assay [2] (HEK293 cells), the Emax entry was “++ (Emax>100 and ≤200)”. Also, in assay [2] (setting [3]), the EC50 fell in the range of 3000 to 100000 nM.

For the compound `CCn1c(C)nc2cc(N3CCO[C@H](c4noc(C)n4)C3)nc(-c3ccc(Cl)cc3F)c2c1=O` [Example 264, (S)-5-(4-chloro-2-fluorophenyl)-3-ethyl-2-methyl-7-(2-(5-methyl-1,2,4-oxadiazol-3-yl)morpholino)pyrido[4,3-d]pyrimidin-4(3H)-one], the Emax entry in assay [2] (HEK293 cells) is “+++ (Emax>200 and ≤300)”. The EC50 in assay [2] (setting [3]) is 50 to 500 nM.

For the compound `Cc1nc2cc([C@H]3CCO[C@@H](c4cnn(C)c4)C3)nc(-c3ccc(Cl)cc3F)c2c(=O)n1C` (single isomer, unassigned) [Example 162], in assay [2] (HEK293 cells), the Emax result is “+++ (Emax>200 and ≤300)”. The EC50 in assay [2] (setting [3]) was less than 50 nM.

For `Cc1nc2cc(N3CCO[C@@H](c4cnn(C)c4)C3)nc(-c3ccc(Cl)cc3F)c2c(=O)[nH]1` [Example 145, 5-(4-chloro-2-fluorophenyl)-2-methyl-7-((2S)-2-(1-methyl-1H-pyrazol-4-yl)-4-morpholinyl)pyrido[4,3-d]pyrimidin-4(3H)-one], the Emax entry in assay [2] (HEK293 cells) was “++ (Emax>100 and ≤200)”. The EC50 in assay [2] (setting [3]) was in the range of 500 to 3000 nM.

In the case of `Cc1cc([C@H]2CN(c3cc4nc(C)n(C)c(=O)c4c(-c4ccc(Cl)cc4F)n3)CCO2)cc(C)n1` (single isomer, unassigned) [Example 77], in assay [2] (HEK293 cells), the Emax entry is on record as “++++ (Emax>300)”. For the same compound, in assay [2] (setting [3]), the EC50 is less than 50 nM.

As to `Cc1cnc2n1CCN(c1cc3nc(C)n(C)c(=O)c3c(-c3ccc(Cl)cc3F)n1)C2` [Example 223, 5-(4-chloro-2-fluorophenyl)-2,3-dimethyl-7-(3-methyl-5,6-dihydroimidazo[1,2-a]pyrazin-7(8H)-yl)pyrido[4,3-d]pyrimidin-4(3H)-one], the Emax result in assay [2] (HEK293 cells) is “++ (Emax>100 and ≤200)”. The EC50 in assay [2] (setting [3]) lay in the range of 3000 to 100000 nM.

As to `Cc1nc2cc(N3CCO[C@@H](c4cnn(C)c4)C3)nc(-c3ccc(Cl)cc3F)c2c(=O)n1C1CC1` [Example 20, 5-(4-chloro-2-fluorophenyl)-3-cyclopropyl-2-methyl-7-((2S)-2-(1-methyl-1H-pyrazol-4-yl)-4-morpholinyl)pyrido[4,3-d]pyrimidin-4(3H)-one], the Emax entry in assay [2] (HEK293 cells) is “++++ (Emax>300)”. In addition, the EC50 in assay [2] (setting [3]) lay in the range of 50 to 500 nM.

For the compound `Cc1ccc(C2CC(c3cc4nc(C)n(C)c(=O)c4c(-c4ccc(Cl)cc4F)n3)CCO2)cn1` (centres unmarked) [Example 171, 5-(4-chloro-2-fluorophenyl)-2,3-dimethyl-7-(2-(6-methylpyridin-3-yl)tetrahydro-2H-pyran-4-yl)pyrido[4,3-d]pyrimidin-4(3H)-one], the Emax entry in assay [2] (HEK293 cells) is “+++ (Emax>200 and ≤300)”. The EC50 in assay [2] (setting [3]) was 50 to 500 nM.

As for `Cc1nc([C@@H]2CN(c3cc4nc(C)n(C)c(=O)c4c(-c4ccc(Cl)cc4F)n3)CCO2)no1` [Example 200, (S)-5-(4-chloro-2-fluorophenyl)-2,3-dimethyl-7-(2-(5-methyl-1,2,4-oxadiazol-3-yl)morpholino)pyrido[4,3-d]pyrimidin-4(3H)-one], the Emax entry in assay [2] (HEK293 cells) was “++++ (Emax>300)”. In addition, in assay [2] (setting [3]), the EC50 was 50 to 500 nM.

As to `Cc1nc2cc(N3CCO[C@@H](c4cnn(C5COC5)c4)C3)nc(-c3ccc(Cl)cc3F)c2c(=O)n1C` [Example 125, 5-(4-chloro-2-fluorophenyl)-2,3-dimethyl-7-((2S)-2-(1-(3-oxetanyl)-1H-pyrazol-4-yl)-4-morpholinyl)pyrido[4,3-d]pyrimidin-4(3H)-one], in assay [2] (HEK293 cells), the Emax entry is on record as “++++ (Emax>300)”. Moreover, the EC50 in assay [2] (setting [3]) was less than 50 nM.

`Cc1c([C@H]2CN(c3cc4nc(C)n(C)c(=O)c4c(-c4ccc(Cl)cc4F)n3)CCO2)cnn1C` (single isomer, unassigned) [Example 67]: the Emax result in assay [2] (HEK293 cells) was “++ (Emax>100 and ≤200)”. Also, the EC50 in assay [2] (setting [3]) is 3000 to 100000 nM.

In the case of `Cc1nc2cc(N3CCO[C@@H](c4cnn(C)c4)C3)nc(C3CCCCC3)c2c(=O)n1C` [Example 159, 5-cyclohexyl-2,3-dimethyl-7-((2S)-2-(1-methyl-1H-pyrazol-4-yl)-4-morpholinyl)pyrido[4,3-d]pyrimidin-4(3H)-one], the Emax entry in assay [2] (HEK293 cells) was “+++ (Emax>200 and ≤300)”. Further, in assay [2] (setting [3]), the EC50 was in the range of 500 to 3000 nM.

Turning to `Cc1nc2cc(N3CCOC(c4ccc(C#N)cc4)C3)nc(-c3ccc(Cl)cc3F)c2c(=O)n1C` (centres unmarked) [Example 90, 4-(4-(5-(4-chloro-2-fluorophenyl)-2,3-dimethyl-4-oxo-3,4-dihydropyrido [4,3-d]pyrimidin-7-yl)-2-morpholinyl)benzonitrile], the Emax entry in assay [2] (HEK293 cells) was “++++ (Emax>300)”. Further, in assay [2] (setting [3]), the concentration giving a half-maximal response (EC50) is 50 to 500 nM.

For orientation: EC50 means the concentration at which the effect is half-maximal.

These data come from patent US20250388574A1, “HETEROCYCLIC COMPOUNDS AS TRIGGERING RECEPTOR EXPRESSED ON MYELOID CELLS 2 AGONISTS AND METHODS OF USE” (AMGEN INC., priority 2020, published 2025).
